Data published in ChEMBL document CHEMBL1135926, “Structure-based design of novel potent nonpeptide thrombin inhibitors” (J Med Chem, 2002).
pIC50, pKi: −log10 of the molar value.

Target: Plasminogen (Homo sapiens, UniProt P00747)
Assay: Inhibitory constant (Ki) was determined against human plasmin

Sequence of Plasminogen (P00747 97-580 limits assumed): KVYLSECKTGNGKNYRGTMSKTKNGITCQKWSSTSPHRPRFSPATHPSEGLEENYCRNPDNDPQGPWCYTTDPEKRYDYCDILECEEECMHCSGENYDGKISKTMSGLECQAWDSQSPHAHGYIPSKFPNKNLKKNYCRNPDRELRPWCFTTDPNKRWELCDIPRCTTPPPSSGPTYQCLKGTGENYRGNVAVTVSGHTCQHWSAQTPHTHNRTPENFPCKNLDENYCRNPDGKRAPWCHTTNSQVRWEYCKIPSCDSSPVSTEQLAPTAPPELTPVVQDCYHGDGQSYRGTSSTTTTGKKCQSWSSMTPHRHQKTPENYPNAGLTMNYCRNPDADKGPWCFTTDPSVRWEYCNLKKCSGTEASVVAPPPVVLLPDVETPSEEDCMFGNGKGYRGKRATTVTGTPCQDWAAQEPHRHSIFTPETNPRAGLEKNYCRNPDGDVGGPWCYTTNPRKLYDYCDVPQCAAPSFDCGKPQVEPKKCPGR
Sequence of Plasminogen (P00747 581-810 limits assumed): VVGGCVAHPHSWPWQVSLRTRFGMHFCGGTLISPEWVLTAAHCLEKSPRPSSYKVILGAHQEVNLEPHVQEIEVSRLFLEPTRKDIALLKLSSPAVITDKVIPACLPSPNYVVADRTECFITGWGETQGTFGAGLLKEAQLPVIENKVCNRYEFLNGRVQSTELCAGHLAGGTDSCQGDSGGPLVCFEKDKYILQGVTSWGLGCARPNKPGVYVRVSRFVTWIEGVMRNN

Structure (SMILES)	pKi
Cn1c(CNc2ccc(C(=N)N)cc2)nc2cc(C(=O)N(CCC(=O)O)c3ccccn3)ccc21 [DABIGATRAN]	5.77

Target: Tissue-type plasminogen activator (Homo sapiens, UniProt P00750)
Assay: Inhibitory constant (Ki) was determined against human Tissue plasminogen activator (tissue plasminogen activator)

Sequence of Tissue-type plasminogen activator (P00750 whole entry): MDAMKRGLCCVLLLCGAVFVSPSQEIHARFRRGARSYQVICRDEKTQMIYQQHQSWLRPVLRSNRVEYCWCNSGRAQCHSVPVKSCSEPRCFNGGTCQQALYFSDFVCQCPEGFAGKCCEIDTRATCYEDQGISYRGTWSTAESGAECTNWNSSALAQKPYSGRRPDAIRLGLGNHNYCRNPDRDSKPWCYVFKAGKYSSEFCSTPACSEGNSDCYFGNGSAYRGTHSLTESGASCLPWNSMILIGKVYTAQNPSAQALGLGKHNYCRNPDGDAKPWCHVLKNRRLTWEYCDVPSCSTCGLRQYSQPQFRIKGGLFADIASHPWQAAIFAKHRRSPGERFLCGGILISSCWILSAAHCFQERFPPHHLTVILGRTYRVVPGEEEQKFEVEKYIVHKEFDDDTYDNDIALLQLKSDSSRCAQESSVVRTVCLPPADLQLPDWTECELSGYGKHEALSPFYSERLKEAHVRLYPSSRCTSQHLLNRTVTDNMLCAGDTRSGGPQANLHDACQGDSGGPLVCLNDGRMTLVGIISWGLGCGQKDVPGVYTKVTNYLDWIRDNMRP

Structure (SMILES)	pKi
Cn1c(CNc2ccc(C(=N)N)cc2)nc2cc(C(=O)N(CCC(=O)O)c3ccccn3)ccc21 [DABIGATRAN]	4.34

Target: Trypsin (Homo sapiens, UniProt P07477+P07478+P35030)
Assay: Inhibitory constant (Ki) was determined against human trypsin
Assay type: protein assay

Structure (SMILES)	Ki [nM]
Cn1c(CNc2ccc(C(=N)N)cc2)nc2cc(C(=O)N(CCC(=O)O)c3ccccn3)ccc21 [DABIGATRAN]	50.3

Target: Prothrombin (Homo sapiens, UniProt P00734)
Assay: Inhibition of human thrombin by chromogenic assay

Structure (SMILES)	pIC50
Cn1c(CNc2ccc(C(=N)N)cc2)nc2cc(N(CC(=O)O)S(=O)(=O)c3cccc4cccnc34)ccc21	7.96
Cn1c(CCc2ccc(C(=N)N)cc2)nc2cc(C(=O)N(CC(=O)O)c3ccccc3)ccc21	7.27
Cn1c(Cc2ccc(C(=N)N)cc2)nc2cc(N(CCCC(=O)O)S(=O)(=O)c3cccc4cccnc34)ccc21	6.89
COc1ccc(OC)c(S(=O)(=O)Nc2ccc3c(c2)nc(Cc2ccc(C(=N)N)cc2)n3C)c1	5.74
Cn1c(CCc2ccc(C(=N)N)cc2)nc2cc(N(CC(=O)O)S(=O)(=O)c3cccc4cccnc34)ccc21	7.49
Cn1c(Cc2ccc(C(=N)N)cc2)nc2cc(N(CC(=O)O)S(=O)(=O)c3cccc4cccnc34)ccc21	6.92
Cn1c(CNc2ccc(C(=N)N)cc2)nc2cc(C(=O)N(CCC(=O)O)c3ccccc3)ccc21	8.27
Cn1c(Cc2ccc(C(=N)N)cc2)nc2cc(NS(=O)(=O)c3cc(C(F)(F)F)cc(C(F)(F)F)c3)ccc21	< 4.00
Cn1c(CNc2ccc(C(=N)N)cc2)nc2cc(C(=O)N(CC(=O)O)c3ccccc3)ccc21	8.00
Cn1c(COc2ccc(C(=N)N)cc2)nc2cc(C(=O)N(CC(=O)O)c3ccccc3)ccc21	6.48
Cn1c(CNc2ccc(C(=N)N)cc2)nc2cc(C(=O)N(CCCC(=O)O)c3ccccc3)ccc21	8.00
Cn1c(COc2ccc(C(=N)N)cc2)nc2cc(N(CC(=O)O)S(=O)(=O)c3cccc4cccnc34)ccc21	7.24

Further lines, results first:

pIC50	Structure (SMILES)
4.62	Cn1c(Cc2ccc(C(=N)N)cc2)nc2cc(NS(=O)(=O)c3ccc4ccccc4c3)ccc21
5.80	Cn1c(Cc2ccc(C(=N)N)cc2)nc2cc(NS(=O)(=O)c3cccnc3)ccc21
6.22	Cn1c(Cc2ccc(C(=N)N)cc2)nc2cc(NS(=O)(=O)c3cccc4ccccc34)ccc21
6.59	Cn1c(Cc2ccc(C(=N)N)cc2)nc2cc(NS(=O)(=O)c3cccc4cccnc34)ccc21
5.40	CCCn1c(Cc2ccc(C(=N)N)cc2)nc2cc(NS(=O)(=O)c3ccccc3)ccc21
5.62	CCn1c(Cc2ccc(C(=N)N)cc2)nc2cc(NS(=O)(=O)c3ccccc3)ccc21
4.72	N=C(N)c1ccc(Cc2nc3cc(NS(=O)(=O)c4ccccc4)ccc3[nH]2)cc1
5.89	CN(c1ccc2c(c1)nc(Cc1ccc(C(=N)N)cc1)n2C)S(=O)(=O)c1ccccc1
6.29	Cn1c(Cc2ccc(C(=N)N)cc2)nc2cc(NS(=O)(=O)c3cccc4cnccc34)ccc21

Species on record: Homo sapiens
Assay: Effective dose was determined against human plasma using PTT reagent
Assay type: functional

Structure (SMILES)	ED2 [µM]
Cn1c(CNc2ccc(C(=N)N)cc2)nc2cc(C(=O)N(CCC(=O)O)c3ccccn3)ccc21 [DABIGATRAN]	0.23

Target: Vitamin K-dependent protein C (Homo sapiens, UniProt P04070)
Assay: Inhibitory constant (Ki) was determined against human Activated protein C

Sequence of Vitamin K-dependent protein C (P04070 43-197 limits assumed): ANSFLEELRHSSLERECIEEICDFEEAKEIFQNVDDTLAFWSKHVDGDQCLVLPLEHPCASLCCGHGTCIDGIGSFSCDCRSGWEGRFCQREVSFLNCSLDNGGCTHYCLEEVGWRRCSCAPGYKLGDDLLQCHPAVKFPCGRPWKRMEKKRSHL
Sequence of Vitamin K-dependent protein C (P04070 212-461 limits assumed): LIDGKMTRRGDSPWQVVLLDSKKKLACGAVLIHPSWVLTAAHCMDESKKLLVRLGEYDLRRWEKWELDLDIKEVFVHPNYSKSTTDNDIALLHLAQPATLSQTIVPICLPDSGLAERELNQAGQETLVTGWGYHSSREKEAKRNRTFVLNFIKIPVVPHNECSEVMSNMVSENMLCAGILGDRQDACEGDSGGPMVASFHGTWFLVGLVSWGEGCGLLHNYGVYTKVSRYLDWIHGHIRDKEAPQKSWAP

Structure (SMILES)	pKi
Cn1c(CNc2ccc(C(=N)N)cc2)nc2cc(C(=O)N(CCC(=O)O)c3ccccn3)ccc21 [DABIGATRAN]	4.68
